# What was measured:
# Assay in all cases: KINOMEscan
# Assay type in all cases: binding
# QSK = QSK (Homo sapiens (Human), UniProt Q9Y2K2); details: read-out: percent control
# Excerpt: (§1) Example 2. In Vitro Kinase Selectivity Profiling of the Compounds of the Present Disclosure
# [1] = molecular target: RSK2(Kin.Dom.1-N-terminal) (Homo sapiens (Human), UniProt P51812); details: read-out: percent control
# Excerpt: as §1
# TTK = TTK (Homo sapiens (Human), UniProt P33981); details: read-out: percent control
# Excerpt: as §1
# GSK3B = GSK3B (Homo sapiens (Human), UniProt P49841); details: read-out: percent control
# GSK3B, sequence (P49841 whole entry): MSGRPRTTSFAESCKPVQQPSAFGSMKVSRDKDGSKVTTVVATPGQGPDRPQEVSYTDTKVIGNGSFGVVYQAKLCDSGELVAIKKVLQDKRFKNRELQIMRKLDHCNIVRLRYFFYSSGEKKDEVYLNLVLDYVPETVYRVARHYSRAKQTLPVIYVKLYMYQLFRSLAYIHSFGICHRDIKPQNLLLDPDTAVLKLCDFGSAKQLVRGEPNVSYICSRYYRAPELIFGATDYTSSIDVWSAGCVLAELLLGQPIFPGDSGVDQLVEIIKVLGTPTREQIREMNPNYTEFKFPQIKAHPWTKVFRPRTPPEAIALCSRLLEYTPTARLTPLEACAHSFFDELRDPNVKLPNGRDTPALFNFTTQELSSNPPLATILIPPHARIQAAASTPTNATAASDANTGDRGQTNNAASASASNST
# Excerpt: as §1
# PIK3CA(Q546K) = PIK3CA(Q546K) (Homo sapiens (Human), UniProt P42336, Q546K); details: read-out: percent control
# Excerpt: as §1
# CSNK1G1 = CSNK1G1 (Homo sapiens (Human), UniProt Q9HCP0); details: read-out: percent control
# Excerpt: as §1
# LKB1 = LKB1 (Homo sapiens (Human), UniProt Q15831); details: read-out: percent control
# LKB1, sequence (Q15831 whole entry): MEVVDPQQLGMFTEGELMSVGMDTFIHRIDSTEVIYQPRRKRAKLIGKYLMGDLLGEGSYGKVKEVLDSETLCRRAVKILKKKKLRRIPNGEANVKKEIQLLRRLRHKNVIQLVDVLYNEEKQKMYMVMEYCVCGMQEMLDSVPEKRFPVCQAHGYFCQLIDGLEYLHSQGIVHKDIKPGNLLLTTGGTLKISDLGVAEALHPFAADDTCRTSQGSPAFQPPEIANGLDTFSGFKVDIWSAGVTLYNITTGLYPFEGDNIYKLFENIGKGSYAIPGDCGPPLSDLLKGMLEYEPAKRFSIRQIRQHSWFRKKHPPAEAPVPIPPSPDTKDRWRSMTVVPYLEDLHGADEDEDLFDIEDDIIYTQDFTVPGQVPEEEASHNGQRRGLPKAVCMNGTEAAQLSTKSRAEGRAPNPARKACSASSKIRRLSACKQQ
# Excerpt: as §1
# RIOK1 = RIOK1 (Homo sapiens (Human), UniProt Q9BRS2); details: read-out: percent control
# Excerpt: as §1
# ITK = ITK (Homo sapiens (Human), UniProt Q08881); details: read-out: percent control
# Excerpt: as §1
# FLT3(ITD) = details: 1 μM
# Excerpt: as §1
# MYLK4 = MYLK4 (Homo sapiens (Human), UniProt Q86YV6); details: read-out: percent control
# MYLK4, sequence (Q86YV6 whole entry): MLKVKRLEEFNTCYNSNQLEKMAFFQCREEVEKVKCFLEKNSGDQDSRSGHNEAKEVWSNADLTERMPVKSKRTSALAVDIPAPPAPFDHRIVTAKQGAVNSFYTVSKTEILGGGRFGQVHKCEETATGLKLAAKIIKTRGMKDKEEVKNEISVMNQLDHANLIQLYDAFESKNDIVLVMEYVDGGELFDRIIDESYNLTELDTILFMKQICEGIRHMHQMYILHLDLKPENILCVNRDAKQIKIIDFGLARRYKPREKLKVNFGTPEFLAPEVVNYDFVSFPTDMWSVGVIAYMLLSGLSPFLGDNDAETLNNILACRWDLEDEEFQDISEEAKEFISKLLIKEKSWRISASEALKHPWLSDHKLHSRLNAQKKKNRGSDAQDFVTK
# Excerpt: as §1
# BRSK2 = BRSK2 (Homo sapiens (Human), UniProt Q8IWQ3); details: read-out: percent control
# Excerpt: as §1
# CSNK2A1 = CSNK2A1 (Homo sapiens (Human), UniProt P68400); details: read-out: percent control
# CSNK2A1, sequence (P68400 whole entry): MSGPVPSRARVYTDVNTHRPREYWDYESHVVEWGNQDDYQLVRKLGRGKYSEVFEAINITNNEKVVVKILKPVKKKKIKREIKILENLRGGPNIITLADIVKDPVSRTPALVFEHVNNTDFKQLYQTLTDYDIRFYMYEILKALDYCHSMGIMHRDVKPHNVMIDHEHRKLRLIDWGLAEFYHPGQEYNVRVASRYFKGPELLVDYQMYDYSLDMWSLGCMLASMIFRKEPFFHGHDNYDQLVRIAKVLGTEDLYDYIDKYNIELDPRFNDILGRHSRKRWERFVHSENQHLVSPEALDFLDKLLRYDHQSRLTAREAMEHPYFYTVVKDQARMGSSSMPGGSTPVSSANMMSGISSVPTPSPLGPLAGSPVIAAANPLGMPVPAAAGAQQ
# Excerpt: as §1
# AKT3 = AKT3 (Homo sapiens (Human), UniProt Q9Y243); details: read-out: percent control
# AKT3, sequence (Q9Y243 whole entry): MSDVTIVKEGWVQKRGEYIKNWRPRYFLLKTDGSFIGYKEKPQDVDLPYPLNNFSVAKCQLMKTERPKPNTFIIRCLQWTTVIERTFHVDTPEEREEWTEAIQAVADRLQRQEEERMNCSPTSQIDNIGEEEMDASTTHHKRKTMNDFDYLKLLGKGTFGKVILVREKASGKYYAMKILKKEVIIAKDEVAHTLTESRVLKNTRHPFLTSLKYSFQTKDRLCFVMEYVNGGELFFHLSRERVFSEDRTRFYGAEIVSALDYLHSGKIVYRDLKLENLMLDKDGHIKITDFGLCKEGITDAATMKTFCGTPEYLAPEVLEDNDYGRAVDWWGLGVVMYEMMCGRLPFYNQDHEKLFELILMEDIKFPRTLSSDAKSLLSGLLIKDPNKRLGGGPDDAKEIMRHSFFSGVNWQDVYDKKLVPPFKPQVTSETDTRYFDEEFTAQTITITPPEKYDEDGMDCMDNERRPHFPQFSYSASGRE
# Excerpt: as §1
# SLK = SLK (Homo sapiens (Human), UniProt Q9H2G2); details: read-out: percent control
# Excerpt: as §1
# PAK3 = PAK3 (Homo sapiens (Human), UniProt O75914); details: read-out: percent control
# Excerpt: as §1
# IRAK1 = IRAK1 (Homo sapiens (Human), UniProt P51617); details: read-out: percent control
# Excerpt: as §1
# WNK3 = WNK3 (Homo sapiens (Human), UniProt Q9BYP7); details: read-out: percent control
# Excerpt: as §1
# DMPK2 = DMPK2 (Homo sapiens (Human), UniProt Q6DT37); details: read-out: percent control
# Excerpt: as §1
# DCAMKL1 = DCAMKL1 (Homo sapiens (Human), UniProt O15075); details: read-out: percent control
# Excerpt: as §1
# EPHB4 = EPHB4 (Homo sapiens (Human), UniProt P54760); details: read-out: percent control
# Excerpt: as §1
# IKK-beta = IKK-beta (Homo sapiens (Human), UniProt O14920); details: read-out: percent control
# Excerpt: as §1
# TLK2 = TLK2 (Homo sapiens (Human), UniProt Q86UE8); details: read-out: percent control
# Excerpt: as §1
# WEE2 = WEE2 (Homo sapiens (Human), UniProt P0C1S8); details: read-out: percent control
# Excerpt: as §1
# SRC = SRC (Homo sapiens (Human), UniProt P12931); details: read-out: percent control
# Excerpt: as §1
# ZAK = ZAK (Homo sapiens (Human), UniProt Q9NYL2); details: read-out: percent control
# Excerpt: as §1
# FES = FES (Homo sapiens (Human), UniProt P07332); details: read-out: percent control
# FES, sequence (P07332 whole entry): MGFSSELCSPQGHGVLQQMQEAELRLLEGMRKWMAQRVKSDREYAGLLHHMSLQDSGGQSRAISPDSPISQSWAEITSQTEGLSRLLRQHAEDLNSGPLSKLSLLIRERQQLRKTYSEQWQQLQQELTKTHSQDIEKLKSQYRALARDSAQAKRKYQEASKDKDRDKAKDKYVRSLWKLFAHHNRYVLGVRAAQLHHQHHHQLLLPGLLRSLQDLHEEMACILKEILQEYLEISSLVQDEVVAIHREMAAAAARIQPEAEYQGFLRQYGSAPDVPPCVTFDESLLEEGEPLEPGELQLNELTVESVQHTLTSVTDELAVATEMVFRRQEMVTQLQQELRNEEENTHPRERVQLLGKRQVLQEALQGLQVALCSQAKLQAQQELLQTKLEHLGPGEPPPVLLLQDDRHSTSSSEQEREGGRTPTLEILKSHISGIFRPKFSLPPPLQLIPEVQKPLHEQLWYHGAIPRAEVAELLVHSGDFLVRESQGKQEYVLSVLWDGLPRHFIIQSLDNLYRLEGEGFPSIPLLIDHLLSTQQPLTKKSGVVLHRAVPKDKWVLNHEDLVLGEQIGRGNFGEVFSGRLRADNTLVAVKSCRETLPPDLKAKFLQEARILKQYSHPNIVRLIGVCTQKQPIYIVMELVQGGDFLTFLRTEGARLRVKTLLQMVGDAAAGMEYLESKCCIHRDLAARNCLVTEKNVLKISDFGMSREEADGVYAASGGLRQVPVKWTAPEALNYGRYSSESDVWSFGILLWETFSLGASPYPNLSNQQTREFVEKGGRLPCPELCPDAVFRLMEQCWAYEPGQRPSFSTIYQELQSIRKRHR
# Excerpt: as §1
# TAOK3 = TAOK3 (Homo sapiens (Human), UniProt Q9H2K8); details: read-out: percent control
# Excerpt: as §1
# MEK4 = MEK4 (Homo sapiens (Human), UniProt P45985); details: read-out: percent control
# Excerpt: as §1
# PAK6 = PAK6 (Homo sapiens (Human), UniProt Q9NQU5); details: read-out: percent control
# Excerpt: as §1
# AURKB = AURKB (Homo sapiens (Human), UniProt Q96GD4); details: read-out: percent control
# AURKB, sequence (Q96GD4 whole entry): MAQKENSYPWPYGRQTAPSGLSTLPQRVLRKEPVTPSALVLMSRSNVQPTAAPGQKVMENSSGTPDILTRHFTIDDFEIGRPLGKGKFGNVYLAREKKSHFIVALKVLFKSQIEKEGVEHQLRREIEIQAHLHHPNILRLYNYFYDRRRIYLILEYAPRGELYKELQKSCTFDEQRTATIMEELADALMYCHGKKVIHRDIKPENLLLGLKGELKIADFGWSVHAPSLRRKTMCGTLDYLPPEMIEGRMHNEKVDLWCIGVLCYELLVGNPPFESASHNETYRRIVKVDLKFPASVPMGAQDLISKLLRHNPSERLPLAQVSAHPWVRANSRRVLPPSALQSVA
# Excerpt: as §1
# p38-beta = p38-beta (Homo sapiens (Human), UniProt Q15759); details: read-out: percent control
# p38-beta, sequence (Q15759 whole entry): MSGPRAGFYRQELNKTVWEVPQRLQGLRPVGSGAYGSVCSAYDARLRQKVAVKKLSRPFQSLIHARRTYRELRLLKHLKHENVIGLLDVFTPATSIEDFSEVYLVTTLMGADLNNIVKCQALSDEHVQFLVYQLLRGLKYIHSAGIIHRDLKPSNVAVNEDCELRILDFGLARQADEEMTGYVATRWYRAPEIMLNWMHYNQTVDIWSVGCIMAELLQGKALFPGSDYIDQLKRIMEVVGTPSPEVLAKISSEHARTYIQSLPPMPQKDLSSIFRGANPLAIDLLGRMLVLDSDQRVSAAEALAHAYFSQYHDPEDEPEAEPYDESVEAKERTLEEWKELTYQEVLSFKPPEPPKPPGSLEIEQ
# Excerpt: as §1
# IGF1R = IGF1R (Homo sapiens (Human), UniProt P08069); details: read-out: percent control
# Excerpt: as §1
# PFTK1 = PFTK1 (Homo sapiens (Human), UniProt O94921); details: read-out: percent control
# Excerpt: as §1
# SGK2 = SGK2 (Homo sapiens (Human), UniProt Q9HBY8); details: read-out: percent control
# Excerpt: as §1
# DDR2 = DDR2 (Homo sapiens (Human), UniProt Q16832); details: read-out: percent control
# Excerpt: as §1
# p38-alpha = p38-alpha (Homo sapiens (Human), UniProt Q16539); details: read-out: percent control
# Excerpt: as §1
# BRSK1 = BRSK1 (Homo sapiens (Human), UniProt Q8TDC3); details: read-out: percent control
# Excerpt: as §1
# CSNK1D = CSNK1D (Homo sapiens (Human), UniProt P48730); details: read-out: percent control
# Excerpt: as §1
# GCN2(Kin.Dom.2, S808G) = GCN2(Kin.Dom.2, S808G) (Homo sapiens, UniProt Q9P2K8, S808G); details: read-out: percent control
# Excerpt: as §1
# PFTAIRE2 = PFTAIRE2 (Homo sapiens (Human), UniProt Q96Q40); details: read-out: percent control
# Excerpt: as §1
# QSK, sequence (Q9Y2K2 whole entry): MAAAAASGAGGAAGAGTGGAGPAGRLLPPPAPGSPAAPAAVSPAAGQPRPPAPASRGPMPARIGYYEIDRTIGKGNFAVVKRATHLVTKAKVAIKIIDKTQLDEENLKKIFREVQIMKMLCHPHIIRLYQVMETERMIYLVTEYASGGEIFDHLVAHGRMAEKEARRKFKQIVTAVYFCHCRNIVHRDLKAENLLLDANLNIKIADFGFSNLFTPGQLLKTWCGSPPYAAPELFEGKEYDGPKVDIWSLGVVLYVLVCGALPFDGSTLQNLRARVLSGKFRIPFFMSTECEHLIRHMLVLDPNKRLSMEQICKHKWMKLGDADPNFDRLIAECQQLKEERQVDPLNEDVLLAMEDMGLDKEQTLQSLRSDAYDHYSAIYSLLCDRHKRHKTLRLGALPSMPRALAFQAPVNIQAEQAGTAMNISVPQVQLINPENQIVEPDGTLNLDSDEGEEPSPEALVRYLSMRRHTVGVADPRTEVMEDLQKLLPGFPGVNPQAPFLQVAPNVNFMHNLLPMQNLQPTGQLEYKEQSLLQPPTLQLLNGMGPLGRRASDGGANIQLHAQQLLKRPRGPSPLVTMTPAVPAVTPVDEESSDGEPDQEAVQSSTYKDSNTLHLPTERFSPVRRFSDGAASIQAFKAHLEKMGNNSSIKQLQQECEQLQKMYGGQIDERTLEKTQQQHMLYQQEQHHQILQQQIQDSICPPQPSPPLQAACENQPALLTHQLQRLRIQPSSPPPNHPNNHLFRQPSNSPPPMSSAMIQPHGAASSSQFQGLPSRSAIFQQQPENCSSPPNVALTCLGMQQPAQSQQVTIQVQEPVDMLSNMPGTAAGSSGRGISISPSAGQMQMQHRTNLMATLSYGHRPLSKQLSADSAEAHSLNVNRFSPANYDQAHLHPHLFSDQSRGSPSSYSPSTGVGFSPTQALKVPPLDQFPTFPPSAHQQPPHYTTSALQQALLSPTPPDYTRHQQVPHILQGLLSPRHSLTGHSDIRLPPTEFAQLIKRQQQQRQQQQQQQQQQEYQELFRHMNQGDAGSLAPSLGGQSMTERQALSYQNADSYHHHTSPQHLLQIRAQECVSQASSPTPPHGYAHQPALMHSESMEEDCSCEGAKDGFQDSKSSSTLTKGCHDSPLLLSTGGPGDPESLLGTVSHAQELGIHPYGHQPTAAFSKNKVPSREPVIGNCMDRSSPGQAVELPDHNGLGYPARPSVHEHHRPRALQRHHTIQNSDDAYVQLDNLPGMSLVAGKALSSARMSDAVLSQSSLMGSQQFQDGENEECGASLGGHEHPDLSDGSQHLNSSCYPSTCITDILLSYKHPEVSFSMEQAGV
structure (smiles),measurement,setting,value
CCN1CCN(Cc2ccc(Nc3nc4ccc(Oc5ccnc(NC(C)=O)c5)cc4n3C)cc2C(F)(F)F)CC1 [Compound I-2],remaining binding at 1 µM,QSK,60%
same,remaining binding at 1 µM,[1],95%
same,remaining binding at 1 µM,TTK,75%
same,remaining binding at 1 µM,GSK3B,76%
same,remaining binding at 1 µM,PIK3CA(Q546K),100%
same,remaining binding at 1 µM,CSNK1G1,100%
same,remaining binding at 1 µM,LKB1,40%
same,remaining binding at 1 µM,RIOK1,100%
same,remaining binding at 1 µM,ITK,97%
same,percent control,FLT3(ITD),24%
same,remaining binding at 1 µM,MYLK4,100%
same,remaining binding at 1 µM,BRSK2,100%
same,remaining binding at 1 µM,CSNK2A1,66%
same,remaining binding at 1 µM,AKT3,99%
same,remaining binding at 1 µM,SLK,81%
same,remaining binding at 1 µM,PAK3,54%
same,remaining binding at 1 µM,IRAK1,79%
same,remaining binding at 1 µM,WNK3,100%
same,remaining binding at 1 µM,DMPK2,89%
same,remaining binding at 1 µM,DCAMKL1,91%
same,remaining binding at 1 µM,EPHB4,100%
same,remaining binding at 1 µM,IKK-beta,98%
same,remaining binding at 1 µM,TLK2,98%
same,remaining binding at 1 µM,WEE2,100%
same,remaining binding at 1 µM,SRC,61%
same,remaining binding at 1 µM,ZAK,25%
same,remaining binding at 1 µM,FES,100%
same,remaining binding at 1 µM,TAOK3,41%
same,remaining binding at 1 µM,MEK4,97%
same,remaining binding at 1 µM,PAK6,93%
same,remaining binding at 1 µM,AURKB,49%
same,remaining binding at 1 µM,p38-beta,100%
same,remaining binding at 1 µM,IGF1R,59%
same,remaining binding at 1 µM,PFTK1,94%
same,remaining binding at 1 µM,SGK2,89%
same,remaining binding at 1 µM,DDR2,0%
same,remaining binding at 1 µM,p38-alpha,92%
same,remaining binding at 1 µM,BRSK1,100%
same,remaining binding at 1 µM,CSNK1D,100%
same,remaining binding at 1 µM,"GCN2(Kin.Dom.2, S808G)",28%
same,remaining binding at 1 µM,PFTAIRE2,75%
"CCN1CCN(Cc2ccc(Nc3nc4ccc(Oc5ccnc(NC(C)=O)c5)c(C)c4n3C)cc2C(F)(F)F)CC1 [Compound I-6, N-(4-(2-(4-((4-ethylpiperazin-1-yl)methyl)-3-(trifluoromethyl)phenylamino)-1,7-dimethyl-1H-benzo[d]imidazol-6-yloxy)pyridin-2-yl)acetamide]",remaining binding at 1 µM,QSK,85%
same,remaining binding at 1 µM,[1],83%
same,remaining binding at 1 µM,TTK,96%
same,remaining binding at 1 µM,GSK3B,100%
same,remaining binding at 1 µM,PIK3CA(Q546K),75%
same,remaining binding at 1 µM,CSNK1G1,100%
same,remaining binding at 1 µM,LKB1,91%
same,remaining binding at 1 µM,RIOK1,100%
same,remaining binding at 1 µM,ITK,98%
same,percent control,FLT3(ITD),11%
same,remaining binding at 1 µM,MYLK4,96%
same,remaining binding at 1 µM,BRSK2,74%
same,remaining binding at 1 µM,CSNK2A1,91%
same,remaining binding at 1 µM,AKT3,100%
same,remaining binding at 1 µM,SLK,55%
same,remaining binding at 1 µM,PAK3,77%
same,remaining binding at 1 µM,IRAK1,38%
same,remaining binding at 1 µM,WNK3,100%
same,remaining binding at 1 µM,DMPK2,83%
same,remaining binding at 1 µM,DCAMKL1,69%
same,remaining binding at 1 µM,EPHB4,90%
same,remaining binding at 1 µM,IKK-beta,72%
same,remaining binding at 1 µM,TLK2,97%
same,remaining binding at 1 µM,WEE2,100%
same,remaining binding at 1 µM,SRC,32%
same,remaining binding at 1 µM,ZAK,5.6%
same,remaining binding at 1 µM,FES,82%
same,remaining binding at 1 µM,TAOK3,13%
same,remaining binding at 1 µM,MEK4,91%
same,remaining binding at 1 µM,PAK6,90%
same,remaining binding at 1 µM,AURKB,81%
same,remaining binding at 1 µM,p38-beta,94%
same,remaining binding at 1 µM,IGF1R,34%
same,remaining binding at 1 µM,PFTK1,61%
same,remaining binding at 1 µM,SGK2,85%
same,remaining binding at 1 µM,DDR2,0%
same,remaining binding at 1 µM,p38-alpha,44%
same,remaining binding at 1 µM,BRSK1,100%
same,remaining binding at 1 µM,CSNK1D,100%
same,remaining binding at 1 µM,"GCN2(Kin.Dom.2, S808G)",44%
same,remaining binding at 1 µM,PFTAIRE2,100%

# — patent US12522583B2, “Benzimidazole derivatives and aza-benzimidazole derivatives as Janus kinase 2 inhibitors and uses thereof” (Dana-Farber Cancer Institute, Inc., priority 2018, dated 2026)
